Data as given in the NIST ThermoML archive (doi:10.1016/j.jct.2012.09.018).

Test: mn = molality of the nth substance listed, in mol/kg
Settings: 101 kPa, Liquid, Pycnometric method

O=C([O-])C(F)(F)C(F)(F)C(F)(F)C(F)(F)C(F)(F)C(F)(F)C(F)(F)F.[Na+] [sodium perfluorooctanoate] + O
m1 = 0.04
Settings | mass density [kg/m3]
293.15 K | 1007.53
298.15 K | 1006.24
303.15 K | 1004.73
308.15 K | 1003.15

CC(C)C[C@H](NC(=O)CN)C(=O)O [glycyl-L-leucine] + O
293.15 K
Settings | mass density [kg/m3]
m1 = 0.01984 | 999.17
m1 = 0.02628 | 999.49
m1 = 0.03301 | 999.83
m1 = 0.03973 | 1000.15
m1 = 0.04936 | 1000.61
m1 = 0.05894 | 1001.06
m1 = 0.06889 | 1001.56
m1 = 0.07838 | 1002.04
m1 = 0.08821 | 1002.51

CC(C)[C@H](NC(=O)CN)C(=O)O [glycyl-L-valine] + O
293.15 K
Settings | mass density [kg/m3]
m1 = 0.01993 | 999.24
m1 = 0.04051 | 1000.32
m1 = 0.06065 | 1001.37
m1 = 0.08097 | 1002.43
m1 = 0.1005 | 1003.46
m1 = 0.1203 | 1004.51
m1 = 0.1403 | 1005.53
m1 = 0.1594 | 1006.55
m1 = 0.1799 | 1007.62
m1 = 0.1995 | 1008.64

NCC(=O)NCC(=O)O [glycylglycine] + O
293.15 K
Settings | mass density [kg/m3]
m1 = 0.02014 | 999.33
m1 = 0.04077 | 1000.49
m1 = 0.06148 | 1001.64
m1 = 0.09135 | 1003.33
m1 = 0.1226 | 1005.06
m1 = 0.1538 | 1006.84
m1 = 0.1823 | 1008.4
m1 = 0.2128 | 1010.11
m1 = 0.2534 | 1012.46
